Molecular target: T1, human GPR40 (Homo sapiens, UniProt O14842)
T1 construct: expressed in transfected cells
Experiment: Evaluation of human GPR40 agonist activity with increase in intracellular Ca2+ concentration as an index (FLIPR)
Assay type: cell-based
Conditions: test compound 1 μM; CHO(dhfr−) cells stably expressing human GPR40; 100% = 10 μM compound of Example 153, 0% = DMSO
Experimental: Plasmid hGPR40/pAKKO-1.11H for mammalian cells expression, wherein cDNA fragment (SEQ ID NO: 1) encoding the full-length human GPR40 was incorporated into an expression vector pAKKO-1.11H (Biochimica et Biophysica Acta vol. 1219 pp. 251-259 (1994)), was transfected into CHO-dhfr(−) cells (ATCC, CRL-9096) by using Lipofectamine 2000 (Invitrogen:11668-019). After transfection, the limiting dilution-culture method was performed to select clone in selection medium (nucleic acid-free α-MEM (Invitrogen:12561-056)) containing 10% dialyzed bovine serum (Invitrogen:26400-044)). The expression level of human GPR40 mRNA was confirmed by TaqMan PCR (Life Technologies), and the intracellular calcium mobilization activity of GPR40 ligand (γ-linolenic acid) was confirmed by FLIPR (Molecular Devices), and a clone of human GPR40 expressing CHO cells was selected.
Evaluation of Human GPR40 Agonist Activity with Increase in Intracellular Ca^2+ Concentration as an Index
CHO(dhfr−) cells that stably expressed human GPR40 were suspended in MEMα (Nikken Bio Medical Laboratory) containing 10% dialyzed bovine serum (JR Scientific), 10 mM HEPES (Life Technologies), 100 U/mL penicillin, 100 μg/mL streptomycin (Life Technologies), and plated on a 384 well black/clear cell culture plate at 10,000 cells/well. After culture overnight in a CO2 incubator at 37° C., the culture supernatant was removed, and loading buffer [Ca^2+ probe attached to Calcium Kit II-iCellux (DOJINDO) was dissolved in assay buffer (20 mM HEPES, 0.1% fatty acid-free BSA (Sigma-Aldrich), 2.5 mM probenecid (DOJINDO)-containing HESS (Life Technologies))] was added at 30 μL/well. After leaving for 1 hr at room temperature under light shielding, assay buffer containing the test compound at a final concentration of 1 μM was added at 10 μL/well in FLIPR Tetra (Molecular Devices), and the fluorescence amount was successively measured. Human GPR40 agonist activity calculated using an increase in the intracellular Ca^2+ concentration as an index, wherein the activity of 10 μM of the compound of Example 153 was 100%, and the activity when DMSO was added instead of the test compound was 0%.

T1 sequence (O14842 whole entry): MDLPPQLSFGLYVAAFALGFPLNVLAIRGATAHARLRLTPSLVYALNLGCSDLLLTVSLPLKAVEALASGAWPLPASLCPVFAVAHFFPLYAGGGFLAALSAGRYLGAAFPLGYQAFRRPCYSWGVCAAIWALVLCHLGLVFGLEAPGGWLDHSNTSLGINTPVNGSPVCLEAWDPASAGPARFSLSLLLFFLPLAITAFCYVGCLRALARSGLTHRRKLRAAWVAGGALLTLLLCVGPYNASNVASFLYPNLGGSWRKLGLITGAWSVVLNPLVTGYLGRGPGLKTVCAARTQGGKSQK

activation at 1 µM	Activity (human GPR40 agonist activity)	SMILES
97%		COc1ccc(C(=O)N(C)CC(C)C)c(N2CCC(COc3cccc(C(CC(=O)O)C4CC4)c3)CC2)c1 (stereo not shown) [Example 1, 3-cyclopropyl-3-(3-((1-(5-methoxy-2-(methyl(2-methylpropyl)carbamoyl)phenyl)piperidin-4-yl)methoxy)phenyl)propanoic acid]
89%		CCc1ccc(C(=O)N(CC(F)(F)C(F)(F)F)C(C)C)c(N2CCC(COc3cccc(C(CC(=O)O)C4CC4)c3)CC2)c1 (stereo not shown) [Example 54, 3-cyclopropyl-3-(3-((1-(5-ethyl-2-((2,2,3,3,3-pentafluoropropyl)(propan-2-yl)carbamoyl)phenyl)piperidin-4-yl)methoxy)phenyl)propanoic acid]
84%		CCc1ccc(C(=O)N(CC(C)(C)C)c2cccc(C)n2)c(N2CCC(COc3cccc(C(CC(=O)O)C4CC4)c3)CC2)c1 (stereo not shown) [Example 55, 3-cyclopropyl-3-(3-((1-(2-((2,2-dimethylpropyl)(6-methylpyridin-2-yl)carbamoyl)-5-ethylphenyl)piperidin-4-yl)methoxy)phenyl)propanoic acid]
83%		CCc1ccc(C(=O)N(CC(C)(C)C)c2ccccn2)c(N2CCC(COc3cccc(C(CC(=O)O)C4CC4)c3)CC2)c1 (stereo not shown) [Example 56, 3-cyclopropyl-3-(3-((1-(2-((2,2-dimethylpropyl)(pyridin-2-yl)carbamoyl)-5-ethylphenyl)piperidin-4-yl)methoxy)phenyl)propanoic acid]
58%		CCc1ccc(C(=O)N(C)c2ncco2)c(N2CCC(COc3cccc(C(CC(=O)O)C4CC4)c3)CC2)c1 (stereo not shown) [Example 57, 3-cyclopropyl-3-(3-((1-(5-ethyl-2-(methyl(1,3-oxazol-2-yl)carbamoyl)phenyl)piperidin-4-yl)methoxy)phenyl)propanoic acid]
52%		CCc1ccc(C(=O)N(CC(C)(C)C)c2ccccn2)c(N2CCC(COc3cccc(C(CC(=O)O)C4CC4)c3)CC2)n1 (stereo not shown) [Example 60, 3-cyclopropyl-3-(3-((1-(3-((2,2-dimethylpropyl)(pyridin-2-yl)carbamoyl)-6-ethylpyridin-2-yl)piperidin-4-yl)methoxy)phenyl)propanoic acid]
101%		COc1ccc(C(=O)N(CC(C)C)c2ccccn2)c(N2CCC(COc3cccc(C(CC(=O)O)C4CC4)c3)CC2)c1 (stereo not shown) [Example 62, 3-cyclopropyl-3-(3-((1-(5-methoxy-2-((2-methylpropyl)(pyridin-2-yl)carbamoyl)phenyl)piperidin-4-yl)methoxy)phenyl)propanoic acid]
90%		CCc1ccc(C(=O)N(CC(C)(C)C)c2cccc(C)n2)c(N2CCC(COc3cc(C(CC(=O)O)C4CC4)ccn3)CC2)c1 (stereo not shown) [Example 109, 3-cyclopropyl-3-(2-((1-(2-((2,2-dimethylpropyl)(6-methylpyridin-2-yl)carbamoyl)-5-ethylphenyl)piperidin-4-yl)methoxy)pyridin-4-yl)propanoic acid]

The next lines start with the compound.

SMILES	activation at 1 µM	Activity (human GPR40 agonist activity)
COc1ccc(C(=O)N(CC2CC2)c2ccccn2)c(N2CCC(COc3cc(C(CC(=O)O)C4CC4)ccn3)CC2)c1 (single isomer, unassigned) [Example 141, 3-cyclopropyl-3-(2-((1-(2-((cyclopropylmethyl)(pyridin-2-yl)carbamoyl)-5-methoxyphenyl)piperidin-4-yl)methoxy)pyridin-4-yl)propanoic acid]	81%	
COc1ccc(C(=O)N(CC2CC2)c2ccccn2)c(N2CCC(COc3cc(C(CC(=O)O)C4CC4)ccn3)CC2)c1 (single isomer, unassigned) [Example 142, 3-cyclopropyl-3-(2-((1-(2-((cyclopropylmethyl)(pyridin-2-yl)carbamoyl)-5-methoxyphenyl)piperidin-4-yl)methoxy)pyridin-4-yl)propanoic acid]		97%
COc1ccc(C(=O)N2CCc3ccccc32)c(N2CCC(COc3cccc(C(CC(=O)O)C4CC4)c3)CC2)c1 (stereo not shown) [Example 4, 3-cyclopropyl-3-(3-((1-(2-(2,3-dihydro-1H-indol-1-ylcarbonyl)-5-methoxyphenyl)piperidin-4-yl)methoxy)phenyl)propanoic acid]	97%	
COc1ccc(C(=O)N2C[C@@H](C)O[C@@H](C)C2)c(N2CCC(COc3cccc(C(CC(=O)O)C4CC4)c3)CC2)c1 (stereo partly drawn) [Example 5, 3-cyclopropyl-3-(3-((1-(2-((cis-2,6-dimethylmorpholin-4-yl)carbonyl)-5-methoxyphenyl)piperidin-4-yl)methoxy)phenyl)propanoic acid]	85%	
COc1ccc(C(=O)N(CCC#N)c2ccccc2)c(N2CCC(COc3cccc(C(CC(=O)O)C4CC4)c3)CC2)c1 (stereo not shown) [Example 6, 3-(3-((1-(2-((2-cyanoethyl)(phenyl)carbamoyl)-5-methoxyphenyl)piperidin-4-yl)methoxy)phenyl)-3-cyclopropylpropanoic acid]	73%	
CC(C)(C)CN(C(=O)c1ccc(Cl)nc1N1CCC(COc2cccc(C(CC(=O)O)C3CC3)c2)CC1)c1ccccn1 (stereo not shown) [Example 59, 3-(3-((1-(6-chloro-3-((2,2-dimethylpropyl)(pyridin-2-yl)carbamoyl)pyridin-2-yl)piperidin-4-yl)methoxy)phenyl)-3-cyclopropylpropanoic acid]	73%	
COc1ccc(C(=O)N(CC(C)(C)C)c2cccc(C)n2)c(N2CCC(COc3cc(C(CC(=O)O)C4CC4)ccn3)CC2)c1 (stereo not shown) [Example 110, 3-cyclopropyl-3-(2-((1-(2-((2,2-dimethylpropyl)(6-methylpyridin-2-yl)carbamoyl)-5-methoxyphenyl)piperidin-4-yl)methoxy)pyridin-4-yl)propanoic acid]		104%
COc1ccc(C(=O)N(CC(C)(C)C)c2ccccn2)c(N2CCC(COc3cc(C(CC(=O)O)C4CC4)ccn3)CC2)c1 (stereo not shown) [Example 111, 3-cyclopropyl-3-(2-((1-(2-((2,2-dimethylpropyl)(pyridin-2-yl)carbamoyl)-5-methoxyphenyl)piperidin-4-yl)methoxy)pyridin-4-yl)propanoic acid]	100%	
COc1ccc(C(=O)N(CC(C)(C)C)c2cc(C)ccn2)c(N2CCC(COc3cc(C(CC(=O)O)C4CC4)ccn3)CC2)c1 (stereo not shown) [Example 112, 3-cyclopropyl-3-(2-((1-(2-((2,2-dimethylpropyl)(4-methylpyridin-2-yl)carbamoyl)-5-methoxyphenyl)piperidin-4-yl)methoxy)pyridin-4-yl)propanoic acid]	98%	
COc1ccc(C(=O)N(CC(C)C)c2ccccn2)c(N2CCC(COc3cc(C(CC(=O)O)C4CC4)ccn3)CC2)c1 (stereo not shown) [Example 113, 3-cyclopropyl-3-(2-((1-(5-methoxy-2-((2-methylpropyl)(pyridin-2-yl)carbamoyl)phenyl)piperidin-4-yl)methoxy)pyridin-4-yl)propanoic acid]	102%	
COc1ccc(C(=O)N(CC2(C)CC2)c2ccccn2)c(N2CCC(COc3cc(C(CC(=O)O)C4CC4)ccn3)CC2)c1 (stereo not shown) [Example 114, 3-cyclopropyl-3-(2-((1-(5-methoxy-2-(((1-methylcyclopropyl)methyl)(pyridin-2-yl)carbamoyl)phenyl)piperidin-4-yl)methoxy)pyridin-4-yl)propanoic acid]	98%	

Reference: patent publication US9776962B2, “Aromatic compounds with GPR40 agonistic activity” (TAKEDA PHARMACEUTICAL COMPANY LIMITED, priority 2013, dated 2017)
